Assay results published in US20060276534A1, “Methods of decreasing calcification” (Amgen Inc., priority 2005, published 2006).

Key:
[1] = system: 5/6 Nx rats; experiment: Soft tissue mineralization by Von Kossa staining in 5/6 Nx rats (Example 4); assay type: in vivo, rat; settings: 14 days
Text: Wistar rats (200-250g), fed a 0.6% Ca and 1.2% P diet, were 5/6 nephrectomized (5/6 Nx).

[2] = system: 5/6 Nx rats; experiment: Serum PTH, ionized Ca, P and creatinine in 5/6 Nx rats given paricalcitol and/or Compound B (Example 3); settings: 14 days
[3] = system: 5/6 Nx rats; experiment: Ca and P content of thoracic aorta in 5/6 Nx rats given paricalcitol and/or Compound B (Example 3); assay type: in vivo, rat
Text: Wistar rats (200-250g), fed a 0.6% Ca and 1.2% P diet, were 5/6 nephrectomized (5/6 Nx) or sham-operated (sham).

[4] = system: adenine-induced CKD rats; experiment: PTH and serum chemistry profile in adenine-induced CKD model with vascular calcification; assay type: in vivo, rat; settings: adenine diet rats, Compound B 3 mg/kg p.o. daily 21 days, vs vehicle
Text: (§1) Male Sprague-Dawley rats (Charles River Laboratories) weighing 300-350 grams were used in these studies. All animals received standard lab chow (Harlan Teklad, Madison, Wis.) prior to the start of the studies. The standard lab chow was changed to a standard rodent lab chow that contained 0.75% adenine. Animals received food and water ad libitum. The animal protocol was approved by the Institutional Animal Care and Use Committee of Amgen Inc. (Thousand Oaks, Calif.).
(§2) Animals were fed the adenine containing chow for 21 days, and prior to the start of the adenine diet animals were pre-bleed for baseline measurements of ionized calcium, PTH, BUN and creatinine and phosphorus levels (FIG. 9).
Prior to placing animals on an adenine diet or administration of Compound B or vehicle baseline determininations of serum P, Ca, BUN, PTH and creatinine were performed. Blood was removed from the orbital sinus under while the rats were under anesthetisa (2% isoflurane in O2). After the time 0 bleed, animals were placed on the adenine containing chow and were administered Compound B at 3 mg/kg p.o. or vehicle (12% captisol in water) daily for 21 days. At the end of the study (day 21) animals were sacrificed and the aorta and parathyroid glands were removed for histopathological analysis. Blood was removed for blood chemistries and PTH determinations. For measurement of blood ionized calcium levels, blood was collected from the abdominal aorta under anesthesthia (2% isofluorane in O2), prior to sacrifice, with heparinized capillary tubes and analyzed using a Ciba-Corning 634 ISE Ca^++/pH Analyzer (Ciba-Corning Diagnostics Corp, Medfield, Mass.). Separately, blood was collected for PTH, blood urea nitrogen (BUN), creatinine, and serum phosphorus levels into SST (clot activator) brand blood tubes (BD, Franklin Lakes, N.J.) and allowed to clot. Serum was removed and stored at −70° C. until assayed. PTH levels were quantified according to the vendor's instructions using a rat PTH(1-34) immunoradiometric assay kit (Immutopics, San Clemente, CA). BUN, creatinine, and phosphorus levels were determined using a blood chemistry analyzer (Olympus AU 400, Melville, N.Y.).

[5] = system: adenine-induced CKD rats; experiment: Parathyroid hyperplasia (PCNA immunohistochemistry, parathyroid weight) in adenine-induced CKD model; assay type: in vivo, rat; settings: adenine diet rats, vs vehicle
Text: as §1, §2
(§3) Prior to placing animals on an adenine diet or administration of Compound B or vehicle baseline determininations of serum P, Ca, BUN, PTH and creatinine were performed. […] For measurement of blood ionized calcium levels, blood was collected from the abdominal aorta under anesthesthia (2% isofluorane in O2), prior to sacrifice, with heparinized capillary tubes and analyzed using a Ciba-Corning 634 ISE Ca^++/pH Analyzer (Ciba-Corning Diagnostics Corp, Medfield, Mass.). […] PTH levels were quantified according to the vendor's instructions using a rat PTH(1-34) immunoradiometric assay kit (Immutopics, San Clemente, CA). […]

[6] = system: adenine-induced CKD rats; experiment: Aortic vascular calcification by bone mineral density (PIXImus) in adenine-induced CKD model; assay type: in vivo, rat; settings: adenine diet rats; Compound B 3 mg/kg p.o. daily 21 days, compared to vehicle on the same diet
Text: as §1
as §3, with “performed. Blood was removed from the orbital sinus under while the rats were under anesthetisa (2% isoflurane in O2).” for “performed.”, “CA). BUN, creatinine, and phosphorus levels were determined using a blood chemistry analyzer (Olympus AU 400, Melville, N.Y.).” for “CA).”

[7] = Compound B 1.5 mg/kg every 48 hr sc to calcitriol-treated 5/6 Nx rats
[8] = 5/6 Nx rats, compared to 5/6 Nx+vehicle
[9] = 5/6Nx rats, paricalcitol 240 ng/kg every 48 hr ip, Compound B 1.5 mg/kg every 48 hr sc
[10] = serum, 5/6Nx rats, paricalcitol 240 ng/kg every 48 hr ip, Compound B 1.5 mg/kg every 48 hr sc
[11] = 5/6 Nx rats, 14 days, compared to vehicle treated 5/6 Nx animals (Compound B also vs sham)
[12] = Compound B administered to paricalcitol treated 5/6 Nx rats, compared to 5/6 Nx rats treated with paricalcitol
[13] = thoracic aorta, 5/6Nx rats, 14 days, paricalcitol 240 ng/kg every 48 hr ip, Compound B 1.5 mg/kg every 48 hr sc

Creatinine, change in words [2, 8]: no changes
Creatinine [2, 9]: 0.98 ± 0.1 mg/dL
Creatinine levels ([4]; p<0.05): decrease
Blood urea nitrogen (BUN) ([4]; p>0.05): no significant treatment effect
SMILES: COc1ccc(CNC(C)c2ccccc2)cc1-c1ccc(C(F)(F)F)cc1 (stereo not drawn) [Compound B, N-((6-(methyloxy)-4′-(trifluoromethyl)-1,1′-biphenyl-3-yl)methyl)-1-phenylethanamine]
Heart mineralization (Von Kossa staining) [1, 7]: reduced
Kidney mineralization (Von Kossa staining) [1, 7]: reduced
Lung mineralization (Von Kossa staining) [1, 7]: reduced
Kidney mineralization (Von Kossa staining) ([1]; Compound B 1.5 mg/kg every 48 hr sc to paricalcitol-treated 5/6 Nx rats): reduced
Blood ionized calcium, change in words [2, 8]: no changes
Serum P levels, change in words [2, 8]: no changes
Serum PTH levels, change in words [2, 8]: significantly (p<0.05) decreased
Ionized Ca [2, 9]: 0.93 ± 0.06 mM
P [2, 10]: 9.5 ± 1.5 mg/dL
PTH [2, 10]: 45 ± 1.8 pg/mL
Aortic Ca content, change in words [3, 11]: did not significantly change
Aortic P content, change in words [3, 11]: did not significantly change
Aortic Ca content, change in words [3, 12]: significantly (p<0.05) reduced
Aortic P content, change in words [3, 12]: significantly (p<0.05) reduced
Aortic Ca [3, 13]: 2.6 ± 0.16 mg/g
Aortic P [3, 13]: 0.33 ± 0.05 mg/g
Serum P levels [4]: no significant (p>0.05) treatment effect
Serum PTH levels ([4]; p<0.0001): significantly reduced
Total serum calcium ([4]; p=0.0001): significantly reduced
Serum ionized calcium (iCa) ([4]; p=0.004): significantly reduced
Number of PCNA-positive cells (parathyroid) ([5]; Compound B 3 mg/kg p.o. daily 3 weeks): significantly (p<0.01) reduced
Parathyroid weights ([5]; Compound B 3 mg/kg p.o. daily 21 days): significantly decreased
Reduction aortic bone mineral density [6]: 75%
